Assay results reported in US20080249154A1, “Preventive and/or Therapeutic Agent For Disease In Which Mitochondrial Benzodiazephine Receptor Participates” (ONO PHARMACEUTICAL CO., LTD., priority 2003, published 2008).
pKi: −log10 of the molar value.

Molecular target: T1, MBR (mitochondrial benzodiazepine receptor) (Rattus norvegicus, UniProt P16257)
T1 construct: from tissue; host or cells: male Wistar rat whole brain with cerebellum removed, crude membrane pellet
Assay: Receptor binding experiment: [3H]PK11195 competition binding, rat brain membrane preparation
Details: [3H]PK11195 0.5 or 1 nmol/L, 1 hour at room temperature, calculated by Cheng and Prusoff formula from KD and IC50, read-out: Ki value (inhibition constant)
Procedure: The affinity of the compounds in the present invention to MBR was determined using rat brain membrane preparation. In addition, the measurement in the present invention was improved the accuracy of measurement and the sensitivity of measurement for evaluating the compounds in the present invention as follows. After male Wister rats were decapitated to extirpate the whole brain and cerebellums were removed. They were homogenized in ice-cold 50 mmol/L Tris-HCL buffer solution (pH7.4), centrifuged and the obtained pellets were washed. The pellets resuspended and adjusted to about 1 mg/mL were used as rat brain membrane preparations for binding assay. The binding assay were experimented using [^3H]PK11195 as a MBR selective ligand. […]
To determine the amount of total binding in saturation binding experiment, membrane preparations, various concentrations of [^3H]PK11195, final concentration: 0.5 vol % dimethylsulfoxide (DMSO) and 50 mmol/L Tris-HCL buffer solution (pH7.4) were mixed (total volume 200 μL) and were incubated for 1 hour at room temperature. […] The filter was dried and then the radioactivity on the filter was measured by liquid scintillation counter. The data obtained by the binding experiments were Scatchard analyzed using analysis software, KELL (Ver.6, BIOSOFT) and the dissociation constant (KD value) was determined. […]

O=C(CCc1ccccc1)Nc1c2c(nn1-c1ccc(Cl)cc1)CSC2 [Example 8(8), N-[2-(4-chlorophenyl)-2,6-dihydro-4H-thieno[3,4-c]pyrazol-3-yl]-3-phenylpropanamide]
pKi: 7.00
